The subject of experiment [1] is K562. In words: Antiproliferative activity against human K562 cells assessed as inhibition of cell viability incubated for 72 hrs by real time live-cell imaging technique. The settings on record: K562, 72 h. The format is functional, cell-based.
For experiment [2], the system named is K562. The experiment in a line: Induction of apoptosis in human K562 cells assessed as increase in apoptotic cells at 10 uM incubated for 48 hrs by Caspase-3/7 reagent-based fluorescence assay. Format: functional, cell-based.
The subject of experiment [3] is K562. In words: Inhibition of STAT signalling in human K562 cells up to 10 uM incubated for 48 hrs by human phospho-kinase array. Format: cell-based.
Experiment [4] addresses Proline-rich AKT1 substrate 1 (Homo sapiens) (UniProt Q96B36). In words: Inhibition of PRAS40 phosphorylation at T246 residue in human K562 cells up to 10 uM incubated for 48 hrs by human phospho-kinase array. Format: cell-based.
The subject of experiment [5] is K562. The experiment in a line: Inhibition of PI3K/Akt signaling in human K562 cells assessed as reduction in GSK3alpha/beta phosphorylation at S21/S9 residues up to 10 uM incubated for 48 hrs by human phospho-kinase array. Format: cell-based.
For experiment [6], the target named is Serine/threonine-protein kinase WNK1 (Homo sapiens) (UniProt Q9H4A3). In words: Inhibition of WNK1 phosphorylation at T60 residue in human K562 cells up to 10 uM incubated for 48 hrs by human phospho-kinase array. Format: cell-based.
Sequence of Serine/threonine-protein kinase WNK1 (Homo sapiens) (Q9H4A3 whole entry, looked up): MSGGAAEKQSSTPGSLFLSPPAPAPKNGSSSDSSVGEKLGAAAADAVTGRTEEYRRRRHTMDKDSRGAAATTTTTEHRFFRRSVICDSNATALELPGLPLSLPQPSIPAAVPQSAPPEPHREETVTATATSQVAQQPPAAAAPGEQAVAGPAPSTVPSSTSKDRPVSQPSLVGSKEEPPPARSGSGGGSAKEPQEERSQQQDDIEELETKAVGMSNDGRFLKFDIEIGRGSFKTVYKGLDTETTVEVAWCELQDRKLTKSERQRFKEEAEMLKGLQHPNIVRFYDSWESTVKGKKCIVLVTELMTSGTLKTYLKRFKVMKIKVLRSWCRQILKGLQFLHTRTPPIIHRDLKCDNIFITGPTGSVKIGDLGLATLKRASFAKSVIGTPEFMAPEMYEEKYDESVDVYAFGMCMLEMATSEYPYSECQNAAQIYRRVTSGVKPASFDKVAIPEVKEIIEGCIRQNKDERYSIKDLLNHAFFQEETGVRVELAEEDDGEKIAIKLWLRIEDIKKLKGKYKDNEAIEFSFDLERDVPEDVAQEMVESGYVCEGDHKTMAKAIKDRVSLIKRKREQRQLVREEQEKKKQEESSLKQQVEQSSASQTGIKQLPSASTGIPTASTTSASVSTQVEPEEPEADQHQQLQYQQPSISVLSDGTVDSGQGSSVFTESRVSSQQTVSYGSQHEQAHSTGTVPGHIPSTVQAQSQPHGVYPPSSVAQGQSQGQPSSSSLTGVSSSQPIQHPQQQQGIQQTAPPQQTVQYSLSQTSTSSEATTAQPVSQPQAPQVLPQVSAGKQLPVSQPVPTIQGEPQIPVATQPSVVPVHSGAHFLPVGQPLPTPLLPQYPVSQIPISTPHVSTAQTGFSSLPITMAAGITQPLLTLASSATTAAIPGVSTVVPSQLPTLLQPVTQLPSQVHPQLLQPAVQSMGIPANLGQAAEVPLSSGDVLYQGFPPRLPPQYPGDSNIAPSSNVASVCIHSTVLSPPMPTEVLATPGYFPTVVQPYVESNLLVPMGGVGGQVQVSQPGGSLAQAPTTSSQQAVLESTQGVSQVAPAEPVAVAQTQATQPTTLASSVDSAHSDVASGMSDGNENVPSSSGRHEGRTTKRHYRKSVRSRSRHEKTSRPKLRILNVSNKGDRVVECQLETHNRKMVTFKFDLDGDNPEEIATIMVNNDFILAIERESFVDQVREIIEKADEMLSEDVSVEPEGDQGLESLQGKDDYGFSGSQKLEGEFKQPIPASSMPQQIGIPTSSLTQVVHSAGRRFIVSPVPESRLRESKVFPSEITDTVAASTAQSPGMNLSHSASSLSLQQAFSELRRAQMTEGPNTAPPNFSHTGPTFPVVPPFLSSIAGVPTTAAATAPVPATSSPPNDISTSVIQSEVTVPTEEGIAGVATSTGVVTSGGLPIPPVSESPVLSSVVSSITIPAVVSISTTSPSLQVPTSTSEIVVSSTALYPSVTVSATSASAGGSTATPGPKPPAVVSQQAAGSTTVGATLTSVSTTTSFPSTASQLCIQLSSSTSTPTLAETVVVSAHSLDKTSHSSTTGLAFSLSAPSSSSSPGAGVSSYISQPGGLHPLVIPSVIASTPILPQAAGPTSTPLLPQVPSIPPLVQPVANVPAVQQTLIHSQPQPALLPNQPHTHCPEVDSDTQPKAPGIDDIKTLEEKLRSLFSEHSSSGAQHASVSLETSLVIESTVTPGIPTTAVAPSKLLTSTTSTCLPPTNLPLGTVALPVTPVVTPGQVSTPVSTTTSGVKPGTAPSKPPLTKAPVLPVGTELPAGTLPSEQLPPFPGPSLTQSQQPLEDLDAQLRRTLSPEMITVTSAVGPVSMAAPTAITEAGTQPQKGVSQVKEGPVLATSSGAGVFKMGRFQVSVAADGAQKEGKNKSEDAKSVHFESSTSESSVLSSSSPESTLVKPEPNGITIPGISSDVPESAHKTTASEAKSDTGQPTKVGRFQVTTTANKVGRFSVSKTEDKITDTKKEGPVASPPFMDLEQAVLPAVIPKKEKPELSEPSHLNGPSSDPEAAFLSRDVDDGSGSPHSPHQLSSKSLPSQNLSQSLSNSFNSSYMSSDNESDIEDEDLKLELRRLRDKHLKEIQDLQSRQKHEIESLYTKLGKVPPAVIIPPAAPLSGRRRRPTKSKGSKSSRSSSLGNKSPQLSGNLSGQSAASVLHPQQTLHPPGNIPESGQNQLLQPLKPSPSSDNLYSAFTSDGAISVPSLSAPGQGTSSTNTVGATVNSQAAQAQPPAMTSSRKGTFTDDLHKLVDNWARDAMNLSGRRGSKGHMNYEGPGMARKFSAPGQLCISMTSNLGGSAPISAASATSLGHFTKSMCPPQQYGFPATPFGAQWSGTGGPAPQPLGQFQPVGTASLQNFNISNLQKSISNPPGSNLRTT
Experiment [7] deals with K562. In words: Inhibition of MAPK signalling in human K562 cells assessed as effect on HSP27 phosphorylation up to 10 uM incubated for 48 hrs by human phospho-kinase array. Format: cell-based.
The subject of experiment [8] is K562. In words: Inhibition of RAF/MEK/ERK signalling n human K562 cells assessed as reduction in ERK1/2 phosphorylation at T202/Y204, T185/Y187 residues up to 10 uM incubated for 48 hrs by human phospho-kinase array. Format: cell-based.
For experiment [9], the target named is Cyclin-dependent kinase inhibitor 1B (Homo sapiens) (UniProt P46527). In words: Induction of p27 phosphorylation at T198 residues in human K562 cells up to 10 uM incubated for 48 hrs by human phospho-kinase array. Format: cell-based.
Experiment [10] has as its system K562. The experiment in a line: Inhibition of RAF/MEK/ERK signalling n human K562 cells assessed as reduction in RSK1/2/3 phosphorylation at S380/S386/S377 residues up to 10 uM incubated for 48 hrs by human phospho-kinase array. Format: cell-based.
The subject of experiment [11] is K562. In words: Inhibition of MAPK signalling in human K562 cells assessed as effect on p38 phosphorylation up to 10 uM incubated for 48 hrs by human phospho-kinase array. The format is cell-based.
In experiment [12] the target is Serine/threonine-protein kinase AKT (Homo sapiens) (UniProt P31751+Q9Y243+P31749). In words: Inhibition of AKT1/2/3 phosphorylation (S473/T308 residues) in human K562 cells up to 10 uM incubated for 48 hrs by human phospho-kinase array. The format is cell-based.
Sequence of Serine/threonine-protein kinase AKT (Homo sapiens) (P31749 whole entry, looked up): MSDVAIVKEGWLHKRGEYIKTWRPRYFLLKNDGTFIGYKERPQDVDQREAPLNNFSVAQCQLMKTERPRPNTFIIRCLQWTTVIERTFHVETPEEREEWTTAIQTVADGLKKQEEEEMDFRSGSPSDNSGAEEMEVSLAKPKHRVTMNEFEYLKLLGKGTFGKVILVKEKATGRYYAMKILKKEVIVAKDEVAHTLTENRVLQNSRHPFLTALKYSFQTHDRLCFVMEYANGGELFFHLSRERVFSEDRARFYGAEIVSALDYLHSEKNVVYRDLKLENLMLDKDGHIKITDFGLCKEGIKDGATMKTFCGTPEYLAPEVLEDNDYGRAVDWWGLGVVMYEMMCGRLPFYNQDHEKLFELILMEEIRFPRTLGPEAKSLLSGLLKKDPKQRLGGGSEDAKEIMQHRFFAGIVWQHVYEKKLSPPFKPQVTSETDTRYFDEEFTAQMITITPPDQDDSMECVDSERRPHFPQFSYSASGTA
Sequence of Serine/threonine-protein kinase AKT (Homo sapiens) (P31751 whole entry, looked up): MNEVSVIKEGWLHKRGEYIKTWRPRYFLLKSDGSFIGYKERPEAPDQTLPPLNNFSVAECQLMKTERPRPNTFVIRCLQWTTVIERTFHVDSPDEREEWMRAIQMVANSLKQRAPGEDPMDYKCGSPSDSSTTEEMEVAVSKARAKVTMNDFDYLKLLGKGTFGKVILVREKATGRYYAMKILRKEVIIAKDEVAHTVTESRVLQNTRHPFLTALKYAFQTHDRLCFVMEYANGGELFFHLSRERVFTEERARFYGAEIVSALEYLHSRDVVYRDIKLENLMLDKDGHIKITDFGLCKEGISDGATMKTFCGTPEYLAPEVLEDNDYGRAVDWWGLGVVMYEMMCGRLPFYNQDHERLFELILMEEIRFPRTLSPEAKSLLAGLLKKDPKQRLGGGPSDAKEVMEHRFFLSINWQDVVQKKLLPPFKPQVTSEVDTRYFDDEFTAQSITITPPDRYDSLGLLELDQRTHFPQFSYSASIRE
Sequence of Serine/threonine-protein kinase AKT (Homo sapiens) (Q9Y243 whole entry, looked up): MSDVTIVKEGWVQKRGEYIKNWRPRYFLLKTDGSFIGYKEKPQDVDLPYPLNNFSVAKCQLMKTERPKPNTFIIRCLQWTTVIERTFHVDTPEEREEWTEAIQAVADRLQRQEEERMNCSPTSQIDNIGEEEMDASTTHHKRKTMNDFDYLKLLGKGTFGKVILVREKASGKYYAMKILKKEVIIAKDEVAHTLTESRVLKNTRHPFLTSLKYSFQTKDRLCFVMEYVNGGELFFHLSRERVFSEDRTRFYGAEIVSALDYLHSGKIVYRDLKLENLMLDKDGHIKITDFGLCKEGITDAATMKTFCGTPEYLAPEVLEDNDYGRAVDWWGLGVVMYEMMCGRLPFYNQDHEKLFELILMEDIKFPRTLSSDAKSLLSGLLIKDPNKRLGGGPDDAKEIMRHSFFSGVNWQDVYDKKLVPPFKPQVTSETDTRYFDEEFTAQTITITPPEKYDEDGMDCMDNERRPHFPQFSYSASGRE
For experiment [13], the target named is Proto-oncogene tyrosine-protein kinase Src (Homo sapiens) (UniProt P12931). The experiment in a line: Inhibition of SRC phosphorylation in human K562 cells up to 10 uM incubated for 48 hrs by human phospho-kinase array. Format: cell-based.
Sequence of Proto-oncogene tyrosine-protein kinase Src (Homo sapiens) (P12931 2-536 limits assumed): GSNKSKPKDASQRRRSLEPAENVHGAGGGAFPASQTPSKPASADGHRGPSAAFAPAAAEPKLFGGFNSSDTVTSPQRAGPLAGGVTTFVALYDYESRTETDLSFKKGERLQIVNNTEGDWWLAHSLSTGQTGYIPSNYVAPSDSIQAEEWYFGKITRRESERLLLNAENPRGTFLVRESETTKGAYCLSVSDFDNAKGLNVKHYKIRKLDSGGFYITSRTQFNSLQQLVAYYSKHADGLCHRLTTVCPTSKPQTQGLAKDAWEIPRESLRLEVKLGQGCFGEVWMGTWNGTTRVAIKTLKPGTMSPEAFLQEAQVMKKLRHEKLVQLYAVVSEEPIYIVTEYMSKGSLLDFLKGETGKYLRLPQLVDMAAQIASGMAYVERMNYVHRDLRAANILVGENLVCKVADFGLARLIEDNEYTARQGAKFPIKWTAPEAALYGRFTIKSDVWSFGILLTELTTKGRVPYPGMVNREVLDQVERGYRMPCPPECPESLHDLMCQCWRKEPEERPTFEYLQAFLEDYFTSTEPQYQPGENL
Experiment [14] deals with Protein-tyrosine kinase 2-beta (Homo sapiens) (UniProt Q14289). In words: Inhibition of PYK2 phosphorylation in human K562 cells up to 10 uM incubated for 48 hrs by human phospho-kinase array. Format: cell-based.
Experiment [15] relates to K562. In words: Inhibition of MAPK signalling in human K562 cells assessed as effect on JNK phosphorylation up to 10 uM incubated for 48 hrs by human phospho-kinase array. Format: cell-based.
Experiment [16] concerns K562. The experiment in a line: Inhibition of PI3K/Akt signaling in human K562 cells assessed as reduction in p70S6K phosphorylation at T421/S424 residues up to 10 uM incubated for 48 hrs by human phospho-kinase array. Format: cell-based.
Experiment [17] concerns K562. The experiment in a line: Induction of apoptosis in human K562 cells assessed as increase in apoptotic cells at 10 uM incubated for 24 to 48 hrs by Caspase-3/7 reagent-based fluorescence assay. Format: functional, cell-based.
The test system of experiment [18] is K562. The experiment in a line: Inhibition of PI3K/Akt signaling in human K562 cells assessed as reduction in mTOR phosphorylation at S2448 residues up to 10 uM incubated for 48 hrs by human phospho-kinase array. Format: cell-based.
Experiment [19] addresses Tyrosine-protein kinase Lck (Homo sapiens) (UniProt P06239). The experiment in a line: Inhibition of LCK phosphorylation in human K562 cells up to 10 uM incubated for 48 hrs by human phospho-kinase array. The format is cell-based.
The target in experiment [20] is Cellular tumor antigen p53 (Homo sapiens) (UniProt P04637). The experiment in a line: Induction of p53 phosphorylation at S392, S46, S15 residues in human K562 cells up to 10 uM incubated for 48 hrs by human phospho-kinase array. Format: cell-based.
Sequence of Cellular tumor antigen p53 (Homo sapiens) (P04637 whole entry, looked up): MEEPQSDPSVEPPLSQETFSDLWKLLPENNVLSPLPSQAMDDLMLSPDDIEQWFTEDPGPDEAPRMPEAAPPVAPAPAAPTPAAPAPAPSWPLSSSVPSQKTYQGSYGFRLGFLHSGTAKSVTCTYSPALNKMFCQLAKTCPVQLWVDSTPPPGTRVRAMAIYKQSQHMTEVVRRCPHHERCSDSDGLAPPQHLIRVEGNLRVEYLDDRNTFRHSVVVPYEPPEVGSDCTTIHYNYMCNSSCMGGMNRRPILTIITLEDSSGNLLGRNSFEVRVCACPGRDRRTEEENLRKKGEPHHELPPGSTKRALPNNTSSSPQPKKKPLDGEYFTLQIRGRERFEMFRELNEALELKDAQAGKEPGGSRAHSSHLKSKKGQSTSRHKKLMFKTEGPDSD

Each structure is given as a SMILES string. Active and inactive are the calls of the source. No cut-off for these calls is given here.

By IC50 is commonly meant the concentration that gives 50% inhibition.

Consider `CCN(CC)CCCNc1cc(Sc2nnc(NC(=O)Nc3ccc(C)cc3)s2)ncn1`, for which, in the experiment on K562 [1], the half-inhibitory concentration (IC50) was 0.014 µM.
Turning to `Cc1ccc(NC(=O)c2ccc(CN3CCN(C)CC3)cc2)cc1Nc1nccc(-c2cccnc2)n1` [IMATINIB], in the experiment with K562 [1], the IC50 was found to be 0.14 µM. For the same molecule, the outcome in the experiment on K562 [2] was Active.
`O=C(Nc1ccc(Cl)c(C(F)(F)F)c1)Nc1nnc(Sc2cc(NCCCN3CCOCC3)ncn2)s1`: the IC50 in the experiment with K562 [1] came to 0.12 µM.
In the case of `O=C(Nc1ccc(Cl)c(C(F)(F)F)c1)Nc1nnc(Sc2cc(OCCCN3CCOCC3)ncn2)s1`, the IC50 in the experiment with K562 [1] came out at 0.15 µM.
Regarding `Cc1ccc(NC(=O)Nc2nnc(Sc3cc(NCCCN4CCOCC4)ncn3)s2)cc1`, the IC50 in the experiment with K562 [1] was determined as 0.056 µM.
Take `Cc1ccc(NC(=O)Nc2nnc(Sc3cc(NCCCN4CCOCC4)ncn3)s2)cc1Cl`: in the experiment with K562 [1], the IC50 is 0.035 µM.
Take `O=C(Nc1ccc(C(F)(F)F)cc1)Nc1nnc(Sc2cc(NCCCN3CCOCC3)ncn2)s1`: the inhibition entry (with K562 [3]; in [4]; in the experiment on K562 [5]; in [6]; in the experiment with K562 [7]; in the experiment with K562 [8]) was “Active” throughout. The inhibition entry (with K562 [10]; in the experiment with K562 [11]; in experiment [12]; in experiment [13]; in experiment [14]; in the experiment with K562 [15]) was “Active” throughout. In addition, the inhibition entry (with K562 [16]; in the experiment on K562 [18]; in experiment [19]) was “Active” throughout. Also, the IC50 with K562 [1] is 0.038 µM. Besides, the outcome (in experiment [9]; in the experiment with K562 [17]; in experiment [20]) was Active.
`COc1cccc(NC(=O)Nc2nnc(Sc3cc(NCCCN4CCOCC4)ncn3)s2)c1`: the IC50 in the experiment on K562 [1] was found to be 0.69 µM.
For `CCN(CC)CCCNc1cc(Sc2nnc(NC(=O)Nc3ccc(Cl)c(C(F)(F)F)c3)s2)ncn1`, in the experiment on K562 [1], the IC50 stood at 0.28 µM.
For `Cc1ccc(NC(=O)Nc2nnc(Sc3cc(OCCCN4CCOCC4)ncn3)s2)cc1`, the IC50 with K562 [1] was determined as 0.078 µM.
On to `O=C(Nc1ccc(Cl)cc1)Nc1nnc(Sc2cc(NCCCN3CCOCC3)ncn2)s1`, for which, in the experiment with K562 [1], the IC50 was determined as 0.11 µM.
